Assay results taken from patent publication US20260232644A1, “Compositions Comprising an Inhibitor of Galectin-3” (University of Liverpool, priority 2023, published 2026).
Counter-ions that a name gives are not always drawn.

Assays:
[1] = system: human melanoma ACA19 cells; test: Galectin-3-mediated ACA19 cell adhesion to HUVECs; assay type: cell-based; details: Galectin-3 2 μg/ml, various concentrations
Procedure: HUVEC cells at 1×10^5 cells/ml in EGM medium were seeded into 24 well plates pre-inserted with 13 mm glass coverslip. The cells were incubated at 37° C. at 5% CO2 for 24 hr for monolayer formation. AGA19+ or SW620 cell suspension (5×10^5 cells/ml in DMEM) was introduced with 5 μl/ml fluorescent cell labelling solution DiL for 30 min at 37° C. The fluorescent labelled cells were washed twice with PBS and resuspended into 1×10^5 cells/ml in DMEM. The cancer cell suspension was then introduced with galectin-3 (2 μg/ml) and various concentrations of the compound inhibitors at 37° C. for 1 hr. The wells were carefully washed twice with PBS to remove the non-adhesion cells before the cells in the wells were fixed with 2% paraformaldehyde for 10 min. The glass coverslip was carefully removed from the plate, placed on a glass slide. After addition of fluorescence mounting medium containing DAPI, fluorescence labelled cells were quantified under a fluorescence microscope.

Galectin-8 = target: T1, Galectin-8 (Homo sapiens, UniProt O00214); test: Galectin-8 binding to asialofetuin ELISA; details: Gal-8 5 μg/ml, ASF 20 μg/ml
T1 construct: purchased R&D Systems (Abingdon, UK)
T1 sequence (O00214 1-317): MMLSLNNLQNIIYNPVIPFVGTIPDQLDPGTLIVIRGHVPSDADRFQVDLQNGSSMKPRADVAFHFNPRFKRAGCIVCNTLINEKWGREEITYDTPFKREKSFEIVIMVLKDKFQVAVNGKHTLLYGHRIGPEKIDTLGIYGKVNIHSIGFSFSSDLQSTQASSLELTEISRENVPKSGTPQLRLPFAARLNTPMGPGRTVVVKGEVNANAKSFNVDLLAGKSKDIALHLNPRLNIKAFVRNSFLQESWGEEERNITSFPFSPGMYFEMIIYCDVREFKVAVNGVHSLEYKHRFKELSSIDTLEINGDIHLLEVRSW
Procedure: Effect of the inhibitors on galectin binding to its ligand asialo fetuin (ASF) was measured by galectin ELISA. Nanty-six well plates were coated overnight with 20 μg/ml ASF in coating buffer (15 mM Na2CO3 17 mM NaHCO3 pH 9.6.). The wells were washed twice with PBS and incubated with blocking buffer (1% BSA in PBS) for 1 hr. The supernatants were removed and replaced with 5 μg/ml recombinant human galectin without or with different concentrations of the compound inhibitors or lactose in blocking buffer for 1 hr at room temperature. The wells were washed and incubated with 1 μg/ml anti-galectin antibody for 2 hr. Following addition of HRP-conjugated secondary antibody for 1 hr, FAST OPD development solution was added for 15-20 minutes. The reaction was terminated by addition of 4M sulphuric acid. The plates were read at 492 nm (reference wavelength 595 nm) by a microplate reader.

vascular HUVECs = test: LDH release cytotoxicity assay, HUVECs; assay type: cell-based, human
Procedure: SW620 cells (5×10^4 cells/ml) were seeded into 96-well plate in DMEM (and incubated at 37° C. 5% CO2 for 24 hr. HUVECs (1.0×10^5 cells/ml) was seeded in EBM medium and incubated for 24-36 hr until they formed a monolayer. Compound inhibitors at different concentrations were then introduced to the cells (10× lysis buffer was included as maximum LDH activity control) for 24 hr. The culture medium was transferred to a new plate and was mixed with equal volume of reaction mixture provided in the kit for 30 min at room temperature before the absorbance was measured at 490 nm (reference 680 nm) by a spectrophotometer.

[2] = target: T2, C-terminal (aa 115-250) Galectin-3 (Homo sapiens, UniProt P17931); test: Tryptophan Fluorescence Spectroscopy (TFS) binding affinity, C-terminal Galectin-3
T2 construct: made in house; host or cells: E. coli
Procedure: The binding affinity of the inhibitors to galectin-3 was determined by Intrinsic Tryptophan Fluorescence Spectroscopy (TFS) exactly as we described recently [Sindrewicz, P., et al., Intrinsic tryptophan fluorescence spectroscopy reliably determines galectin-ligand interactions. Sci Rep, 2019. 9(1): p. 11851]. The Galectin-3 concentration used was 10 μM and the inhibitor titration concentrations were from 0 to 224 μM. DMSO/control buffer (PBS with 2 mM EDTA) titrations were performed and used for background subtraction.

T2 sequence (P17931 115-250): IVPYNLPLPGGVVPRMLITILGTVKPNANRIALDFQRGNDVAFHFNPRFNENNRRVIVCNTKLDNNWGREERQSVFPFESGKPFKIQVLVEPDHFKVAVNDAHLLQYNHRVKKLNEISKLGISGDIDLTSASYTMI

Structure (SMILES): NC1CCN(c2nc3c(cc2F)c(=O)c(C(=O)O)cn3-c2ccc(F)cc2F)C1 (centres unmarked) [Formula X, Tosufloxacin tosylate]
- Inhibition of ACA19 cell adhesion to HUVECs [1]: dose-dependent inhibition
- Effect on Galectin-8 binding to asialofetuin (Galectin-8): does not affect binding
- Cytotoxicity to HUVEC cells (LDH release) (vascular HUVECs; at 100 μM): no detectable cytotoxicity
- Cytotoxicity to HUVEC cells (LDH release) (vascular HUVECs; various concentrations): low cytotoxicity
- Kd [2]: 5 to 7 µM
